The target of one assay is T1, GST-RipK1(1-375) (Homo sapiens, UniProt Q13546).
T1 construct: GST-RipK1 Preparation: His.GST.TEV.RIPK1 1-375; His (N); TEV cleavage site (N); made in house; host or cells: Spodoptera frugiperda (Sf9) insect cells, baculovirus
T1 sequence (Q13546 1-375): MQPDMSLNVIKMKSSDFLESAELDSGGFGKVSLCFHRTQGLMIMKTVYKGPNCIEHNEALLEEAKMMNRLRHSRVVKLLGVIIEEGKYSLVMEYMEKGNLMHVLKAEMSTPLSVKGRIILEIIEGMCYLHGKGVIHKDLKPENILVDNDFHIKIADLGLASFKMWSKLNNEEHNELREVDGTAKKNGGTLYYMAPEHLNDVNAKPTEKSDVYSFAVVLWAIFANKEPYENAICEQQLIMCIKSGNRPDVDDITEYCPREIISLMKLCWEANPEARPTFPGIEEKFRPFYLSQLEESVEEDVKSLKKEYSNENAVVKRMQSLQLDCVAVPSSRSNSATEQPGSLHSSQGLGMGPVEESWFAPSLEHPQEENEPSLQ
As to the kind of experiment: Fluorescent polarization based binding assay at the ATP binding pocket of RIP1. The note with it: FP competition with fluorescently labeled ATP competitive ligand 5 nM; GST-RipK1(1-375) 10 nM; mean of minimum 2 experiments. As for the experimental part: A fluorescent polarization based binding assay was developed to quantitate
interaction of novel test compounds at the ATP binding pocket of RIP 1, by competition with a fluorescently labeled ATP competitive ligand. GST-RipK1(1-375) was purified from a Baculovirus expression system and was used at a final assay concentration of 10 nM. A fluorescent labeled ligand (14-(2-{[3-({2-{[4-(cyanomethyl)phenyl]amino}-6-[(5-20 cyclopropyl-1H-pyrazol-3-yl)amino]-4-pyrimidinyl}amino)propyl]amino}-2-oxoethyl)16,16,18,18-tetramethyl-6,7,7a,8a,9,10,16,18-octahydrobenzo[2″,3″ ]indolizino[8″,7″:5′,6′]pyrano[3′,2′:3,4]pyrido[1,2-a]indol-5-ium-2-sulfonate (prepared as described in WO2014125444, the disclosure of which is incorporated by reference herein) was used at a final assay concentration of 5 nM. Both the enzyme and ligand were prepared in solutions in 50 mM HEPES pH7.5, 10 mM 25 NaCl, 50 mM MgCl2, 0.5 mM DTT, and 0.02% CHAPS. Test compounds were prepared in neat DMSO and 100 nL was dispensed to individual wells of a multiwell plate. Next, 5 ul GST-RipK1(1-375) was added to the test compounds at twice the final assay concentration, and incubated at room temperature for 10 minutes. Following the incubation, 5 ul of the fluorescent labeled ligand solution, was added to each reaction, at twice the final assay concentration, and incubated at room temperature for at least 15 minutes. Finally, samples were read on an instrument capable of measuring fluorescent polarization. Test compound inhibition was expressed as percent (%) inhibition of internal assay controls. For concentration response experiments, normalized data were fit and pIC50s determined using conventional techniques. The pIC50s are averaged to determine a mean value, for a minimum of 2 experiments.
The RIPK 1 gene [receptor (TNFRSF)-interacting serine-threonine kinase 1] was cloned from human adrenal gland cDNA. Primers were designed from the reference sequence NM_003804.3 with an added CACC Kozak directional tag for cloning into pENTR/TEV/D-TOPO. Gateway® LR cloning was used to site-specifically recombine RIPK1 downstream to an N-terminal HisGST contained within the destination vector pDEST8-His.GST according to the protocol described by Invitrogen.

In assay [1] the test system is human monocytic leukemia U937 cells. Kind of assay: U937 necroptosis assay (TNFα + QVD, Cell Titer-Glo viability). The class given is cell-based. The conditions noted are these: U-937, QVD 50 uM, TNFα 100 ng/ml overnight, cellular ATP by Cell Titer-Glo. As for the experimental part:
The efficacy of RIP1 inhibitors can be tested […] in vitro using a human monocytic leukemia U937 cells in a necroptosis assay (He, S. et al. 2009. Cell 137(6): 1100-1111). Cells were maintained in RPMI supplemented with 10% fetal bovine serum 100 U/ml penicillin, 100 ug/ml streptomycin. For the assay, cells were suspended at 5e5 cells/ml in phenol red free RPMI supplemented with 1% fetal bovine serum, 100 U/ml penicillin, 100 ug/ml streptomycin. Thirty-five (35) ul of the cell suspension was aliquotted into a white, half area assay plate. Five (5) ul each of QVD (final concentration 50 uM) or compound was added to the cells and incubated at 37° C. for 30 min to 1 h. Following the incubation, 5 ul TNFα (final concentration 100 ng/ml) was added to the cells and the samples were incubated overnight. The next day, cellular levels of ATP was determined using the Cell Titer-Glo Luminescent Cell Viability kit (available from Promega Corporation, Madison, Wis., USA). Viability was measured by quantitating cellular levels of ATP using the Cell Titer-Glo kit. All data are shown as means±standard deviation of the mean.
In general terms: ATP-based viability assays read luminescence as a measure of living cells.

Turning to `Cc1sc(C)c2c1CCC(NC(=O)c1nnc(Cc3ccccc3)[nH]1)C(=O)N2` (stereo not shown) [Example 1, 5-Benzyl-N-(6,8-dimethyl-2-oxo-2,3,4,5-tetra hydro-1H-thieno[3,4-b]azepin-3-yl)-4H-1,2,4-triazole-3-carboxamide], the IC50 (usually the point on the concentration scale where inhibition reaches its midpoint) at GST-RipK1(1-375) is 100 nM; in assay [1], 398 nM. With `O=C(NC1CCc2[nH]c3ccccc3c2NC1=O)c1nnc(Cc2ccccc2)[nH]1` (stereo not shown) [Example 6, 5-Benzyl-N-(2-oxo-1,2,3,4,5,6-hexahydroazepino[3,2-b]indol-3-yl)-4H-1,2,4-triazole-3-carboxamide], the IC50 at GST-RipK1(1-375) was 39.8 nM; in assay [1], 251 nM.

Regarding `Cc1cn(C)c2c1NC(=O)C(NC(=O)c1nnc(Cc3ccccc3)[nH]1)CC2` (stereo not shown) [Example 5, 5-Benzyl-N-(1,3-dimethyl-5-oxo-1,4,5,6,7,8-hexahydropyrrolo[3,2-b]azepin-6-yl)-4H-1,2,4-triazole-3-carboxamide], the IC50 is 631 nM on GST-RipK1(1-375) and over 10000 nM in assay [1]. Taken in the same sequence, the figures for `O=C(N[C@H]1CSc2cccn2NC1=O)c1nnc(Cc2ccccc2)[nH]1` [Example 8, (R)-5-Benzyl-N-(4-oxo-2,3,4,5-tetrahydropyrrolo[2,1-b][1,3,4]thiadiazepin-3-yl)-4H-1,2,4-triazole-3-carboxamide] were 25.1 nM and 79.4 nM. For `Cc1nsc2c1N(C)C(=O)[C@@H](NC(=O)c1nnc(Cc3ccccc3)[nH]1)CN2` [Example 7, (S)-5-Benzyl-N-(3,4-dimethyl-5-oxo-5,6,7,8-tetrahydro-4H-isothiazolo[4,5-b][1,4]diazepin-6-yl)-4H-1,2,4-triazole-3-carboxamide], in that order: 20 nM and 15.8 nM. For `CN1C(=O)[C@@H](NC(=O)c2nnc(Cc3ccccc3)[nH]2)CSc2cccn21` [Example 9, (R)-5-Benzyl-N-(5-methyl-4-oxo-2,3,4,5-tetrahydropyrrolo[2,1-b][1,3,4]thiadiazepin-3-yl)-4H-1,2,4-triazole-3-carboxamide], in that order: 10 nM and 5.01 nM.

With `O=C(NC1CCc2sccc2NC1=O)c1nnc(Cc2ccccc2)[nH]1` (stereo not shown) [Example 2, 5-Benzyl-N-(5-oxo-5,6,7,8-tetrahydro-4H-thieno[3,2-b]azepin-6-yl)-4H-1,2,4-triazole-3-carboxamide], the values for the IC50 (at GST-RipK1(1-375); in assay [1]) were 251 nM and 794 nM, respectively.

In the case of `Cc1cc2c(s1)CCC(NC(=O)c1nnc(Cc3ccccc3)[nH]1)C(=O)N2` (stereo not shown) [Example 3, 5-Benzyl-N-(2-methyl-5-oxo-5,6,7,8-tetrahydro-4H-thieno[3,2-b]azepin-6-yl)-4H-1,2,4-triazole-3-carboxamide], the IC50 at GST-RipK1(1-375) is 79.4 nM; in assay [1], 631 nM. Taken in the same sequence, the figures for `Cn1ccc2c1CCC(NC(=O)c1nnc(Cc3ccccc3)[nH]1)C(=O)N2` (stereo not shown) [Example 4, 5-Benzyl-N-(1-methyl-5-oxo-1,4,5,6,7,8-hexahydropyrrolo[3,2-b]azepin-6-yl)-4H-1,2,4-triazole-3-carboxamide] were 794 nM and 1260 nM.

In turn, `O=C(NC1CCc2oc3c(c2NC1=O)CCCC3)c1nnc(Cc2ccccc2)[nH]1` (stereo not shown) [Example 10, 5-benzyl-N-(2-oxo-2,3,4,5,7,8,9,10-octahydro-1H-benzofuro[3,2-b]azepin-3-yl)-4H-1,2,4-triazole-3-carboxamide] showed an IC50 on GST-RipK1(1-375) of 794 nM.

(Values after patent US10961258B2, “Heterocyclic amides as kinase inhibitors” (GLAXOSMITHKLINE INTELLECTUAL PROPERTY DEVELOPMENT LIMITED, priority 2015, dated 2021).)
